“And” between values parts separate entries of the source, which are not always exact repeats. Equal entries are not always repeated.
Assays:
[1] = system: murine lymphoid organs (spleen and thymus); experiment: Test 2: weight of murine lymphoid organs after repeated oral administration; format: in vivo, mouse (male B6 D2 F1); details: 100 mg/kg/day for 7 consecutive days
Method: Evaluation of the effect of repeated oral administrations of ST 722 on the weight of murine lymphoid organs (spleen and thymus).
Male B6 D2 F1 mice (C. River) aged 7 weeks (7-8 animals each group) were orally treated with the substance ST 722 at the dose of 100 mg/kg/day for 7 consecutive days. Twenty-four hours after the last administration, the animals were sacrificed, the organs removed and weighed.

[2] = system: Bacillus pumilus (CN 607); experiment: MIC in broth, Gram+ strains; format: cell-based; details: B. pumilus (CN 607), Mueller-Hinton broth, 37° C., 18 hours, read-out: Minimal Inhibitory Concentration (MIC)
Method: (§1) Evaluation of the Minimal Inhibitory Concentration (MIC) in broth of 15 new substances for Gram+ bacterial strains.
(§2) The following strains were used: Staphylococcus aureus (4); Streptococcus faecalis (8); Bacillus pumilus (1); Bacillus subtilis (1).
(§3) MICs were determined by a standard microdilution test, using serial two-fold dilutions of the substances in Mueller-Hinton broth.
(§4) The inoculum was prepared from an overnight culture in Mueller-Hinton broth matching the 0.5 Mc Farland (turbidity) standard (BRAY W. E., Clinical Laboratory Methods, 5th Ed. C. V. MOSBY, St. Louis, Mo. 1957), and was adjusted to a final concentration of 5.0×10^4 colony-forming units/ml.
(§5) Equal volumes (0.1 ml) of both bacterial suspensions and substance solutions were distributed in microtiter plates (Falcon, 96 wells, round bottom), and then placed in a humidified incubator (37° C.) for 18 hours.
(§6) The results, in terms of MIC values, resistant strain number and mean MIC values versus susceptible strains, are illustrated in Tables 1-6.

[3] = system: Streptococcus faecalis (501); experiment: MIC in broth, Gram+ strains; format: cell-based; details: Enterococcus faecalis; S. faecalis (501), Mueller-Hinton broth, 37° C., 18 hours; read-out: Minimal Inhibitory Concentration (MIC)
Method: as §1, §2, §3, §4, §5, §6

[4] = system: Streptococcus faecalis (516); experiment: MIC in broth, Gram+ strains; format: cell-based; details: Enterococcus faecalis; S. faecalis (516), Mueller-Hinton broth, 37° C., 18 hours; read-out: Minimal Inhibitory Concentration (MIC)
Method: as §1, §2, §3, §4, §5, §6

[5] = system: Streptococcus faecalis (519); experiment: MIC in broth, Gram+ strains; format: cell-based; details: Enterococcus faecalis; S. faecalis (519), Mueller-Hinton broth, 37° C., 18 hours; read-out: Minimal Inhibitory Concentration (MIC)
Method: as §1, §2, §3, §4, §5, §6

[6] = system: Bacillus subtilis (ATCC 6051); experiment: MIC in broth, Gram+ strains; format: cell-based; details: ATCC6051, B. subtilis (ATCC 6051), Mueller-Hinton broth, 37° C., 18 hours, read-out: Minimal Inhibitory Concentration (MIC)
Method: as §1, §2, §3, §4, §5, §6

[7] = system: Staphylococcus aureus (306 MR); experiment: MIC in broth, Gram+ strains; format: cell-based; details: S. aureus (306 MR), Mueller-Hinton broth, 37° C., 18 hours, read-out: Minimal Inhibitory Concentration (MIC)
Method: as §1, §2, §3, §4, §5, §6

[8] = system: Staphylococcus aureus (LC1); experiment: MIC in broth, Gram+ strains; format: cell-based; details: S. aureus (LC1), Mueller-Hinton broth, 37° C., 18 hours, read-out: Minimal Inhibitory Concentration (MIC)
Method: as §1, §2, §3, §4, §5, §6

[9] = system: Streptococcus faecalis (UM); experiment: MIC in broth, Gram+ strains; format: cell-based; details: Enterococcus faecalis; S. faecalis (UM), Mueller-Hinton broth, 37° C., 18 hours; read-out: Minimal Inhibitory Concentration (MIC)
Method: as §1, §2, §3, §4, §5, §6

[10] = system: Streptococcus faecalis (518); experiment: MIC in broth, Gram+ strains; format: cell-based; details: Enterococcus faecalis; S. faecalis (518), Mueller-Hinton broth, 37° C., 18 hours; read-out: Minimal Inhibitory Concentration (MIC)
Method: as §1, §2, §3, §4, §5, §6

[11] = system: Streptococcus faecalis (R 2); experiment: MIC in broth, Gram+ strains; format: cell-based; details: Enterococcus faecalis; S. faecalis (R 2), Mueller-Hinton broth, 37° C., 18 hours; read-out: Minimal Inhibitory Concentration (MIC)
Method: as §1, §2, §3, §4, §5, §6

[12] = system: Streptococcus faecalis (505); experiment: MIC in broth, Gram+ strains; format: cell-based; details: Enterococcus faecalis; S. faecalis (505), Mueller-Hinton broth, 37° C., 18 hours; read-out: Minimal Inhibitory Concentration (MIC)
Method: as §1, §2, §3, §4, §5, §6

[13] = system: Staphylococcus aureus (ATCC 14154); experiment: MIC in broth, Gram+ strains; format: cell-based; details: ATCC14154, S. aureus (ATCC 14154), Mueller-Hinton broth, 37° C., 18 hours, read-out: Minimal Inhibitory Concentration (MIC)
Method: as §1, §2, §3, §4, §5, §6

[14] = system: Staphylococcus aureus (S. aureus LC1); experiment: Protective effect in subcutaneous experimental infection in mice; format: in vivo, Staphylococcus aureus in mouse (male CD1); details: for Number of bacteria/mouse: 24 hours
Method: Male CD1 (C. River) mice aged 9 weeks were used (4 animals per group).
A pathogenic strain of Staphylococcus aureus (S. aureus LC1), isolated from a systemic infection in nude mice, was utilized.
The bacterial cells (kept under liquid nitrogen) are thawed and seeded in 10 ml of TSB medium and finally incubated for approximately 18 hours at 37° C.
The culture is then diluted in sterile saline so as to have 2.2×10^7 bacterial cells in a volume of 0.2 ml.
ST 722 was administered subcutaneously, immediately after bacterial inoculation, at the doses of 5, 20, and 50 mcg in 0.2 ml of sterile saline (single treatment).
ST 722 was administered subcutaneously at a dose of 50 mcg (in 0.2 ml of sterile saline) immediately after bacterial inoculation and again 5 hours later, i.e. 100 total mcg per mouse (double treatment).
The "in vivo" experimental model described by Grunberg et al. (GRUNBERG, E., BERGER, J., BESKID, G., CLEELAND, R., PRINCE, N. H. and TITSWORTH, E., 1967. Studies on the "in vitro" and "in vivo" chemotherapeutic properties of the antibiotics myxin. Chemotherapia 12, 272-281) was utilized.
Briefly, it consisted of a subcutaneous injection into the center of the abdominal wall of the standardized bacterial suspension followed by the s.c. administration of the substance in the same area according to the 2 protocols above.
After 24 hours, the animals were sacrificed, and the abdominal wall (including the peritoneum) was exicised from each animal.
The tissue samples were first homogenized by a Potter-Elvehjem tissue grinder in 5 ml of a sterile saline, then a bacterial count was performed by plating the samples onto a S. aureus selective medium (Baird-Parker agar additioned with Ey tellurite enrichment), which allows to easily detect the number of Staphylococcus colonies.
The number of colonies scored in a series of dilutions for each single sample consents to calculate the number of bacterial cells present in the infected tissue sample as follows: [formula] Where Zi is the number of dilutions performed, Ni is the number of plates prepared for each dilution, and Ci is the total number of bacteria scored in each dilution.

CCCCCCCCCCCOC(=O)CC(C[N+](C)(C)C)OC(=O)CC(C)C [ST 722, Isovaleryl-L-Carnitine Undecyl Ester Chloride]
Body weight [1]: 22.74 ± 0.37 g
Spleen weight [1]: 77.88 ± 2.38 mg
Thymus weight [1]: 52.88 ± 3.20 mg
immunotoxic effect on the parameters examined [1]: did not provoke any immunotoxic effect
MIC [2]: 1.56 µg/mL
MIC [3]: 3.12 µg/mL
MIC [4]: 1.56 µg/mL
MIC [5]: 3.12 µg/mL
MIC [6]: 3.12 µg/mL
MIC [7]: 6.25 µg/mL
MIC [8]: 1.56 µg/mL
MIC [9]: 1.56 µg/mL
MIC [10]: 3.12 µg/mL
MIC [11]: 3.12 µg/mL
MIC [12]: 3.12 µg/mL
MIC [13]: 3.12 µg/mL
Number of bacteria/mouse ([14]; double treatment s.c., 50 mcg twice (5 hours apart)): 3.1×10^5 bacteria/mouse and 5.61 × 10^5 bacteria/mouse
reduction of the infective process ([14]; single treatment s.c., 5 mcg): unable to reduce the infective process
Number of bacteria/mouse ([14]; single treatment s.c., 5 mcg, control 1.11 × 10^8): 1.21 × 10^8 bacteria/mouse
reduction of bacterial infection extent ([14]; single treatment s.c., 20 and 50 mcg): dose-dependently reduced in an appreciable manner the bacterial infection extent
Number of bacteria/mouse ([14]; single treatment s.c., 20 mcg, control 1.11 × 10^8): 1.21 × 10^8 bacteria/mouse
Number of bacteria/mouse ([14]; single treatment s.c., 50 mcg, control 1.11 × 10^8): 5.61 × 10^5 bacteria/mouse

Reference: patent publication US5498632A, “Esters of acyl carnitines with long-chain aliphatic alcohols and pharmaceutical compositions containing same having antibacterial activity” (Sigma-Tau Industrie Farmaceutiche Riunite S.p.A., priority 1992, dated 1996)
